From ChEMBL document CHEMBL1201862, “PubChem BioAssay data set” (2004)
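Interpolation was linear, between the two tested concentrations surrounding the appropriate level; five concentrations were tested over 48 hours in 96-well plates. The concentration for 50% growth inhibition is given as GI50.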 Activity calls are given as the source filed them. Cut-off read from the data, not from the text of the source: active = GI50 up to about 1.1 µM and inactive = higher.

What was measured:
Experiment in all cases: NCI-60 cell line screen, 48 h
[1] = test system: MDA-N
[2] = test system: NCI-H226
[3] = test system: SR
[4] = test system: BT-549
[5] = test system: HL-60
[6] = test system: PC-3
[7] = test system: MDA-MB-435
[8] = test system: RPMI-8226
[9] = test system: SW-620
[10] = test system: NCI-H460
[11] = test system: HCT-116
[12] = test system: HOP-18
[13] = test system: SNB-78
[14] = test system: SNB-75
[15] = test system: DLD-1
[16] = test system: K562
[17] = test system: HT-29
[18] = test system: U-251
[19] = test system: DMS-273
[20] = test system: MDA-MB-231

| Compound | GI50 [1] | GI50 [2] | GI50 [3] | GI50 [4] | GI50 [5] | GI50 [6] | GI50 [7] | GI50 [8] | GI50 [9] | GI50 [10] | GI50 [11] | GI50 [12] | GI50 [13] | GI50 [14] | GI50 [15] | GI50 [16] | GI50 [17] | GI50 [18] | GI50 [19] | GI50 [20] |
| --- | --- | --- | --- | --- | --- | --- | --- | --- | --- | --- | --- | --- | --- | --- | --- | --- | --- | --- | --- | --- |
| COc1ccc2cc1Oc1ccc(cc1)CC1c3c(cc(OC)c4c3Oc3cc5c(cc3O4)CCNC5C2)CCN1C (centres undefined) | 1.83 µM (inactive) | 5.52 µM (inactive) | 0.698 µM (active) | 2.77 µM (inactive) | 1.84 µM (inactive) | 1.88 µM (inactive) | 1.8 µM (inactive) | 1.63 µM (inactive) | 1.77 µM (inactive) |  |  |  |  |  |  |  |  |  |  |  |
| O=C(NC(Cc1ccc(Br)cc1)C(=O)O)c1ccc(I)cc1 (centres undefined) |  | > 100 µM (inactive) |  |  | > 100 µM (inactive) |  |  | > 68.9 µM (inactive) | > 100 µM (inactive) | > 100 µM (inactive) | > 100 µM (inactive) | > 100 µM (inactive) | > 100 µM (inactive) | > 95.7 µM (inactive) | > 100 µM (inactive) | > 100 µM (inactive) | > 100 µM (inactive) | > 95.3 µM (inactive) | > 100 µM (inactive) |  |
| COc1cc(C2S/C(=C/c3ccccc3)C(=O)N2c2ccc(NC(C)=O)cc2)cc(OC)c1OC (centres undefined) | 19.3 µM (inactive) |  | 18.9 µM (inactive) | 16.3 µM (inactive) |  | 11.8 µM (inactive) | 18.2 µM (inactive) |  |  |  | 12.7 µM (inactive) |  |  | 3.3 µM (inactive) |  | 16 µM (inactive) | 13.2 µM (inactive) | 15.6 µM (inactive) |  | 14.2 µM (inactive) |
